According to patent US20160280731A1, “CRYSTALLINE FORMS B, C, and D OF CANAGLIFLOZIN” (CRYSTAL PHARMATECH CO., LTD, priority 2013, published 2016):
≈ marks a conversion by molar mass, not a printed value.

What was measured:
[1] = Stability assessment of Form B under stress conditions (XRPD after storage); format: physicochemical; settings: 30 days; for Final form: dish open, XRPD
Protocol: Two samples of canagliflozin Form B were stored under 25° C./60% RH and 40° C./75% RH, respectively, with dish open for 30 days. The solid samples were analyzed by XRPD.

[2] = Kinetic solubility in FeSSIF and FaSSIF; format: physicochemical; settings: for Solubility in comparison to the hemihydrate form (WO2008069327A1): FeSSIF and FaSSIF, 1 h, 4 h, 24 h; for Solubility in comparison to the hemihydrate form (WO2008069327A1) / solubility at 1 h / solubility at 4 h / solubility at 24 h: RT; for solubility at 1 h / solubility at 4 h / solubility at 24 h: thermodynamic from solid
Protocol: Kinetic solubility of canagliflozin in crystalline Form B and its hemihydrate form in fed state simulated intestinal fluid (FeSSIF) and fasted state simulated intestinal fluid (FaSSIF) were measured using the following procedures:
1. Weighed approximately 30 mg of compound into a tared 4 mL plastic vial and recorded the actual weight of the compound.
2. Added 3 mL of water or bio-relevant medium into each vial.
3. Covered the vials with caps and kept all the suspension samples stirring at RT using a rolling incubator with a speed of 25 r/min.
4. Sampled at 1 h, 4 h and 24 h respectively.
5. Centrifuged the filtration tubes in a speed of 8500 rpm for 3 minutes at RT, collected 0.2 mL supernatant for HPLC quantification determination and the rest of solution for pH measurement, and separated the solid for XRPD characterization.
Kinetic solubility of canagliflozin Form C and hemihydrate in fed state simulated intestinal fluid (FeSSIF) and fasted state simulated intestinal fluid (FaSSIF) were measured using the following procedures:
5. Centrifuged filtration tubes in a speed of 8500 rpm for 3 minutes at RT, collected 0.2 mL supernatant for HPLC quantification determination and the rest of solution for pH measurement, and separated the solid for XRPD characterization.

| Stability under the stress conditions ([1]; 25° C./60% RH and 40° C./75% RH) | Final form ([1]; stored under 25° C./60% RH) | Final form ([1]; stored under 40° C./75% RH) | Solubility in comparison to the hemihydrate form (WO2008069327A1) [2] | solubility at 1 h ([2]; fasted state simulated intestinal fluid (FaSSIF), fassif, time point 1 h) [µg/mL] | solubility at 4 h ([2]; fasted state simulated intestinal fluid (FaSSIF), fassif, time point 4 h) [µg/mL] | solubility at 24 h ([2]; fasted state simulated intestinal fluid (FaSSIF), fassif, time point 24 h) [µg/mL] | solubility at 1 h ([2]; fed state simulated intestinal fluid (FeSSIF), fessif, time point 1 h) [µg/mL] | solubility at 4 h ([2]; fed state simulated intestinal fluid (FeSSIF), fessif, time point 4 h) [µg/mL] | solubility at 24 h ([2]; fed state simulated intestinal fluid (FeSSIF), fessif, time point 24 h) [µg/mL] | Solubility at RT ([2]; FaSSIF, time point 1 h) [µg/mL] | Solubility at RT ([2]; FaSSIF, time point 4 h) [µg/mL] | Solubility at RT ([2]; FaSSIF, time point 24 h) [µg/mL] | Solubility at RT ([2]; FeSSIF, time point 1 h) [µg/mL] | Solubility at RT ([2]; FeSSIF, time point 4 h) [µg/mL] | Solubility at RT ([2]; FeSSIF, time point 24 h) [µg/mL] | Compound |
| --- | --- | --- | --- | --- | --- | --- | --- | --- | --- | --- | --- | --- | --- | --- | --- | --- |
| stable | Form B | Form B | higher solubility | 500 (≈ 1.12 mM) | 510 (≈ 1.15 mM) | 480 (≈ 1.08 mM) | 4720 (≈ 10.6 mM) | 4760 (≈ 10.7 mM) | 4350 (≈ 9.79 mM) | – | – | – | – | – | – | Cc1ccc([C@@H]2O[C@H](CO)[C@@H](O)[C@H](O)[C@H]2O)cc1Cc1ccc(-c2ccc(F)cc2)s1 [Form B, (2S,3R,4R,5S,6R)-2-{3-[5-[4-fluoro-phenyl)-thiophen-2-ylmethyl]-4-methyl-phenyl -}-6-hydroxymethyl-tetrahydro-pyran-3,4,5-triol] |
| – | – | – | higher solubility | – | – | – | – | – | – | 410 (≈ 0.922 mM) | 440 (≈ 0.99 mM) | 420 (≈ 0.945 mM) | 4600 (≈ 10.3 mM) | 4700 (≈ 10.6 mM) | 4500 (≈ 10.1 mM) | Cc1ccc([C@@H]2O[C@H](CO)[C@@H](O)[C@H](O)[C@H]2O)cc1Cc1ccc(-c2ccc(F)cc2)s1 [Form C, (2S,3R,4R,5S,6R)-2-{3-[5-[4-fluoro-phenyl)-thiophen-2-ylmethyl]-4-methyl-phenyl -}-6-hydroxymethyl-tetrahydro-pyran-3,4,5-triol] |
| – | – | – | – | – | – | – | – | – | – | 360 | 370 | 370 | 3340 | 3500 | 3700 | Cc1ccc([C@@H]2O[C@H](CO)[C@@H](O)[C@H](O)[C@H]2O)cc1Cc1ccc(-c2ccc(F)cc2)s1 [WO2008069327A1 hemihydrate, (2S,3R,4R,5S,6R)-2-{3-[5-[4-fluoro-phenyl)-thiophen-2-ylmethyl]-4-methyl-phenyl -}-6-hydroxymethyl-tetrahydro-pyran-3,4,5-triol, reference compound] |
